Results taken from ChEMBL document CHEMBL1212697, “High-content single-cell drug screening with phosphospecific flow cytometry” (Nat Chem Biol, 2008).
Each block holds one compound with its values, some of them ahead of it. Active and inactive are the calls of the source. The calls are words filed in the database; no cut-off is given here.

How the values were obtained:
[1] = Inhibition of JAK-mediated IL4-induced Stat5 phosphorylation in BALB/c mouse CD11b-int macrophages by Phospho-Flow cytometry
[2] = molecular target: T1, Janus Kinase (JAK) (Homo sapiens) (UniProt P52333+P23458+O60674+P29597); assay: Inhibition of JAK-mediated GM-CSF-induced Stat5 phosphorylation in human U937 cells by Phospho-Flow cytometry at 20 uM; type: cell-based; conditions: U-937
[3] = molecular target: T1, Janus Kinase (JAK) (Homo sapiens); assay: Inhibition of JAK-mediated interferon-gamma-induced Stat1 phosphorylation in human U937 cells by Phospho-Flow cytometry at 20 uM; type: cell-based; conditions: U-937
[4] = molecular target: MAP kinase p38 (Homo sapiens, UniProt O15264+Q15759+Q16539+P53778); assay: Inhibition of anisomycin-induced p38 phosphorylation in human U937 cells by Phospho-Flow cytometry at 20 uM; type: cell-based; conditions: U-937
[5] = species: Mus musculus; assay: Inhibition of JAK-mediated IL4-induced Stat6 phosphorylation in BALB/c mouse CD11b-hi neutrophils by Phospho-Flow cytometry
[6] = species: Mus musculus; assay: Inhibition of JAK-mediated IL4-induced Stat6 phosphorylation in BALB/c mouse CD8+ Tcells by Phospho-Flow cytometry
[7] = Inhibition of JAK-mediated IL6-induced Stat1 phosphorylation in BALB/c mouse B cells by Phospho-Flow cytometry; type: cell-based
[8] = Inhibition of JAK-mediated IL10-induced Stat3 phosphorylation in BALB/c mouse B cells by Phospho-Flow cytometry; type: cell-based
[9] = Inhibition of JAK-mediated interferon-gamma-induced Stat1 phosphorylation in BALB/c mouse B cells by Phospho-Flow cytometry; type: cell-based
[10] = Inhibition of JAK-mediated IL6-induced Stat3 phosphorylation in BALB/c mouse B cells by Phospho-Flow cytometry; type: cell-based
[11] = Inhibition of JAK-mediated IL15-induced Stat5 phosphorylation in BALB/c mouse B cells by Phospho-Flow cytometry; type: cell-based
[12] = Inhibition of JAK-mediated IL7-induced Stat5 phosphorylation in BALB/c mouse B cells by Phospho-Flow cytometry; type: cell-based
[13] = Inhibition of JAK-mediated IL4-induced Stat6 phosphorylation in BALB/c mouse B cells by Phospho-Flow cytometry; type: cell-based
[14] = Inhibition of JAK-mediated IL4-induced Stat5 phosphorylation in BALB/c mouse B cells by Phospho-Flow cytometry; type: cell-based
[15] = Inhibition of JAK-mediated IL6-induced Stat1 phosphorylation in BALB/c mouse CD4+ T cells by Phospho-Flow cytometry; type: cell-based; conditions: T-cell
[16] = Inhibition of JAK-mediated IL10-induced Stat3 phosphorylation in BALB/c mouse CD4+ T cells by Phospho-Flow cytometry; type: cell-based; conditions: T-cell
[17] = Inhibition of JAK-mediated interferon-gamma-induced Stat1 phosphorylation in BALB/c mouse CD4+ T cells by Phospho-Flow cytometry; type: cell-based; conditions: T-cell
[18] = Inhibition of JAK-mediated IL6-induced Stat3 phosphorylation in BALB/c mouse CD4+ T cells by Phospho-Flow cytometry; type: cell-based; conditions: T-cell
[19] = Inhibition of JAK-mediated IL15-induced Stat5 phosphorylation in BALB/c mouse CD4+ T cells by Phospho-Flow cytometry; type: cell-based; conditions: T-cell
[20] = Inhibition of JAK-mediated IL7-induced Stat5 phosphorylation in BALB/c mouse CD4+ T cells by Phospho-Flow cytometry; type: cell-based; conditions: T-cell
[21] = Inhibition of JAK-mediated IL4-induced Stat6 phosphorylation in BALB/c mouse CD4+ T cells by Phospho-Flow cytometry; type: cell-based; conditions: T-cell
[22] = Inhibition of JAK-mediated IL4-induced Stat5 phosphorylation in BALB/c mouse CD4+ T cells by Phospho-Flow cytometry; type: cell-based; conditions: T-cell
[23] = Inhibition of JAK-mediated IL6-induced Stat1 phosphorylation in BALB/c mouse CD8+ T cells by Phospho-Flow cytometry; type: cell-based; conditions: T-cell
[24] = Inhibition of JAK-mediated IL10-induced Stat3 phosphorylation in BALB/c mouse CD8+ T cells by Phospho-Flow cytometry; type: cell-based; conditions: T-cell
[25] = Inhibition of JAK-mediated IL6-induced Stat3 phosphorylation in BALB/c mouse CD8+ T cells by Phospho-Flow cytometry; type: cell-based; conditions: T-cell
[26] = Inhibition of JAK-mediated IL15-induced Stat5 phosphorylation in BALB/c mouse CD8+ T cells by Phospho-Flow cytometry; type: cell-based; conditions: T-cell
[27] = Inhibition of JAK-mediated IL7-induced Stat5 phosphorylation in BALB/c mouse CD8+ T cells by Phospho-Flow cytometry; type: cell-based; conditions: T-cell
[28] = Inhibition of JAK-mediated IL4-induced Stat6 phosphorylation in BALB/c mouse CD8+ T cells by Phospho-Flow cytometry; type: cell-based; conditions: T-cell
[29] = Inhibition of JAK-mediated IL4-induced Stat5 phosphorylation in BALB/c mouse CD8+ T cells by Phospho-Flow cytometry; type: cell-based; conditions: T-cell
[30] = Inhibition of JAK-mediated IL6-induced Stat1 phosphorylation in BALB/c mouse CD11b-hi neutrophils by Phospho-Flow cytometry
[31] = Inhibition of JAK-mediated IL10-induced Stat3 phosphorylation in BALB/c mouse CD11b-hi neutrophils by Phospho-Flow cytometry
[32] = Inhibition of JAK-mediated interferon-gamma-induced Stat1 phosphorylation in BALB/c mouse CD11b-hi neutrophils by Phospho-Flow cytometry
[33] = Inhibition of JAK-mediated IL6-induced Stat3 phosphorylation in BALB/c mouse CD11b-hi neutrophils by Phospho-Flow cytometry
[34] = Inhibition of JAK-mediated IL15-induced Stat5 phosphorylation in BALB/c mouse CD11b-hi neutrophils by Phospho-Flow cytometry
[35] = Inhibition of JAK-mediated IL7-induced Stat5 phosphorylation in BALB/c mouse CD11b-hi neutrophils by Phospho-Flow cytometry
[36] = Inhibition of JAK-mediated IL4-induced Stat5 phosphorylation in BALB/c mouse CD11b-hi neutrophils by Phospho-Flow cytometry
[37] = Inhibition of JAK-mediated IL6-induced Stat1 phosphorylation in BALB/c mouse CD11b-int macrophages by Phospho-Flow cytometry
[38] = Inhibition of JAK-mediated IL10-induced Stat3 phosphorylation in BALB/c mouse CD11b-int macrophages by Phospho-Flow cytometry
[39] = Inhibition of JAK-mediated interferon-gamma-induced Stat1 phosphorylation in BALB/c mouse CD11b-int macrophages by Phospho-Flow cytometry
[40] = Inhibition of JAK-mediated IL6-induced Stat3 phosphorylation in BALB/c mouse CD11b-int macrophages by Phospho-Flow cytometry
[41] = Inhibition of JAK-mediated IL15-induced Stat5 phosphorylation in BALB/c mouse CD11b-int macrophages by Phospho-Flow cytometry
[42] = Inhibition of JAK-mediated IL7-induced Stat5 phosphorylation in BALB/c mouse CD11b-int macrophages by Phospho-Flow cytometry
[43] = Inhibition of JAK-mediated IL4-induced Stat6 phosphorylation in BALB/c mouse CD11b-int macrophages by Phospho-Flow cytometry
[44] = test system: B; assay: Inhibition of JAK-mediated IL10-induced Stat3 phosphorylation in BALB/c mouse B cells at 1 uM by Western blotting analysis; type: cell-based
[45] = test system: B; assay: Inhibition of JAK-mediated IL4-induced Stat5 phosphorylation in BALB/c mouse B cells at 1 uM by Western blotting analysis; type: cell-based
[46] = test system: B; assay: Inhibition of JAK-mediated IL4-induced Stat6 phosphorylation in BALB/c mouse B cells at 10 uM by Western blotting analysis; type: cell-based
[47] = test system: B; assay: Inhibition of JAK-mediated interferon-gamma-induced Stat1 phosphorylation in BALB/c mouse B cells at 3.5 uM by Phospho-Flow cytometry; type: cell-based
[48] = test system: T-cell; assay: Inhibition of JAK-mediated interferon-gamma-induced Stat1 phosphorylation in BALB/c mouse CD4+ T cells at 100 uM by Phospho-Flow cytometry; type: cell-based
[49] = test system: Mus musculus; assay: In vivo inhibition of JAK-mediated IL4-induced Stat6 phosphorylation in blood cells in BALB/c mouse at 1 to 10 mg/kg, iv administered 30 mins before IL challenge for 15 mins; type: functional, organism-based
[50] = test system: Mus musculus; assay: In vivo inhibition of JAK-mediated IL6-induced Stat3 phosphorylation in blood cells in BALB/c mouse at 1 to 10 mg/kg, iv administered 30 mins before IL challenge for 15 mins; type: functional, organism-based
[51] = test system: Mus musculus; assay: In vivo inhibition of JAK-mediated IL4-induced Stat6 phosphorylation in spleen cells in BALB/c mouse at 1 to 10 mg/kg, iv administered 30 mins before IL challenge for 15 mins; type: functional, organism-based
[52] = test system: Mus musculus; assay: In vivo inhibition of JAK-mediated IL6-induced Stat3 phosphorylation in spleen cells in BALB/c mouse at 1 to 10 mg/kg, iv administered 30 mins before IL challenge for 15 mins; type: functional, organism-based

IC50 [1]: < 20 µM
inhibition [2]: Active
inhibition [3]: 25%
inhibition [4]: 25%
inhibition [5]: Dose-dependent effect
inhibition [6]: Dose-dependent effect
IC50 [7]: < 20 µM
IC50 [8]: 1 µM
IC50 [9]: < 20 µM
IC50 [10]: < 20 µM
IC50 [11]: < 20 µM
IC50 [12]: < 20 µM
IC50 [13]: 16 µM
IC50 [14]: 1 µM
IC50 [15]: < 20 µM
IC50 [16]: < 20 µM
IC50 [17]: < 20 µM
IC50 [18]: < 20 µM
IC50 [19]: < 20 µM
IC50 [20]: < 20 µM
IC50 [21]: < 20 µM
IC50 [22]: < 20 µM
IC50 [23]: < 20 µM
IC50 [24]: < 20 µM
IC50 [25]: < 20 µM
IC50 [26]: < 20 µM
IC50 [27]: < 20 µM
IC50 [28]: < 20 µM
IC50 [29]: < 20 µM
IC50 [30]: < 20 µM
IC50 [31]: < 20 µM
IC50 [32]: < 20 µM
IC50 [33]: < 20 µM
IC50 [34]: < 20 µM
IC50 [35]: < 20 µM
IC50 [36]: < 20 µM
IC50 [37]: < 20 µM
IC50 [38]: < 20 µM
IC50 [39]: < 20 µM
IC50 [40]: < 20 µM
IC50 [41]: < 20 µM
IC50 [42]: < 20 µM
IC50 [43]: < 20 µM
SMILES: C=C1C(=O)O[C@H]2C[C@@H]1[C@@H](OC(C)=O)C/C(C)=C/CC/C(C)=C\CC[C@@]2(C)O [CRASSIN]
inhibition [44]: Active
inhibition [45]: Active
inhibition [46]: Active

IC50 [1]: < 20 µM
inhibition [2]: 25%
inhibition [3]: > 65%
inhibition [4]: 25%
IC50 [7]: < 20 µM
IC50 [8]: < 20 µM
IC50 [9]: < 20 µM
IC50 [10]: < 20 µM
IC50 [11]: < 20 µM
IC50 [12]: < 20 µM
IC50 [14]: < 20 µM
IC50 [15]: < 20 µM
IC50 [16]: < 20 µM
IC50 [17]: < 20 µM
IC50 [18]: < 20 µM
IC50 [19]: < 20 µM
IC50 [20]: < 20 µM
IC50 [21]: < 20 µM
IC50 [22]: < 20 µM
IC50 [23]: < 20 µM
IC50 [24]: < 20 µM
IC50 [25]: < 20 µM
IC50 [26]: < 20 µM
IC50 [27]: < 20 µM
IC50 [28]: < 20 µM
IC50 [29]: < 20 µM
IC50 [30]: < 20 µM
IC50 [31]: < 20 µM
IC50 [32]: < 20 µM
IC50 [33]: < 20 µM
IC50 [34]: < 20 µM
IC50 [35]: < 20 µM
IC50 [36]: < 20 µM
IC50 [37]: < 20 µM
IC50 [38]: < 20 µM
IC50 [39]: < 20 µM
IC50 [40]: < 20 µM
IC50 [41]: < 20 µM
IC50 [42]: < 20 µM
IC50 [43]: < 20 µM
SMILES: COC1=C(N)C(=O)c2nc(-c3nc(C(=O)O)c(C)c(-c4ccc(OC)c(OC)c4O)c3N)ccc2C1=O [STREPTONIGRIN]
inhibition [47]: Active
inhibition [48]: < 50%
inhibition [49]: Active
inhibition [50]: Active
inhibition [51]: Active
inhibition [52]: Active
